This is an account of results in US20260357306A1, “ONE-POT FERMENTATIVE PRODUCTION OF GLYCOLATE OR OTHER HYDROXYCARBOXYLIC ACIDS” (PHYCUS BIOTECHNOLOGIES INC., priority 2023, published 2026).

Data set [1] deals with T1, Azotobacter vinelandii aldehyde dehydrogenase aviALDH, SEQ ID NO: 266 (Azotobacter vinelandii, UniProt C1DMY3).
T1 sequence (C1DMY3 1-477): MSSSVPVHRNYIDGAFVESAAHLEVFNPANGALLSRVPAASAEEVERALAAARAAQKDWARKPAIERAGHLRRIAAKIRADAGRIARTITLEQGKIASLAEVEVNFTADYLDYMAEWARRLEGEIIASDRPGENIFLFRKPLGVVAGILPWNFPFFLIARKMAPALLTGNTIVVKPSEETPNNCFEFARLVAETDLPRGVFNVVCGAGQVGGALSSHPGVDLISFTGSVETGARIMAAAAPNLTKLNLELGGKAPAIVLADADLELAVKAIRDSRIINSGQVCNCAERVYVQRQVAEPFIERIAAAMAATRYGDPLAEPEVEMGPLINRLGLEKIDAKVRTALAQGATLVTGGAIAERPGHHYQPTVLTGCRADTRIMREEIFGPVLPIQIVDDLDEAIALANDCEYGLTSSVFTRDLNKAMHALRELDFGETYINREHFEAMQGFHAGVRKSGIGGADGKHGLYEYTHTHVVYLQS
The data set can be described thus: Aldehyde dehydrogenase (glycolaldehyde to glycolic acid) kinetics, aviALDH. The class given is biochemical. From the text: (§1) Enzyme expression and purification: The enzymes of interest were genetically engineered in the E. coli BL21 (DE3) strain on a high copy plasmid under control of the T7 promoter. The enzymes were tagged with a hexahistidine (His-tag) sequence to facilitate for purification. Post-expression, the His-tagged enzymes were selectively bound to a nickel-charged immobilized metal affinity chromatography (IMAC) resin, exploiting the high affinity between histidine residues and nickel ions. Upon washing away non-specifically bound proteins, the His-tagged enzymes were eluted with an imidazole-containing buffer and subsequently used for enzymatic assays.
Enzyme assays: Standard enzyme characterization protocols were performed to determine the activities of the enzymes. Dehydrogenase activity against the substrates was determined using a continuous assay following the increase in absorbance at 340 nm ε340 (NADH)=6.22 mM^−1. cm^−1, and ε340 (NADPH)=6.2 mM^−1·cm^−1]. Substrate screens were performed at 30 °C in a reaction mixture (200 μL) containing 50 mM of substrate in 100 mM Tris-HCl (pH 8.5), 1 mM NAD^+, 1 mM substrate, and 10 μg of purified protein. Initial velocity patterns of the enzymatic reaction were obtained by varying the concentrations of ethylene glycol at fixed concentrations of enzyme concentration in the presence of the saturating NAD concentrations.
(§2) A second enzymatic step in the processes described herein relate to the conversion of an aliphatic polyhydric aldehyde substrate (e.g., glycolaldehyde) to a corresponding alpha-hydroxy acid (e.g., glycolic acid). E. coli aldehyde dehydrogenase aldA (ecoALDH) has been reported to catalyze the intracellular enzymatic conversion of glycolaldehyde (GA) to glycolic acid (e.g., Wada et al. 2005; Morishige et al., 2007; Pandit et al., 2019; Pandit et al., 2021). In order to identify potentially higher-performing enzymes for industrial use capable of converting glycolaldehyde to glycolic acid, we evaluated a plurality of candidates based on either close, medium, or distant phylogeny to ecoALDH (SEQ ID NO: 265). A subset of candidate enzymes were cloned, expressed, and purified, along with ecoALDH as a control, as described in Example 8.1, and their in vitro enzymatic activities were measured in a reaction mixture consisting of 50 mM glycolaldehyde in 100 mM Tris-HCl buffer (pH 8.5). The reaction was initiated by the addition of the purified enzyme, and activity was measured by monitoring the formation of glycolic acid over time. […]

For data set [2], the system named is Gluconobacter oxydans zinc-dependent medium-chain alcohol dehydrogenase Gox0313, SEQ ID NO: 206. The note with it: role: substrate, Zhang et al., 2015, cited from earlier work.
The target in data set [3] is T2, Pseudomonas putida aldehyde dehydrogenase ppuALDH, SEQ ID NO: 267 (Pseudomonas putida, UniProt Q88K06).
T2 sequence (Q88K06 1-503): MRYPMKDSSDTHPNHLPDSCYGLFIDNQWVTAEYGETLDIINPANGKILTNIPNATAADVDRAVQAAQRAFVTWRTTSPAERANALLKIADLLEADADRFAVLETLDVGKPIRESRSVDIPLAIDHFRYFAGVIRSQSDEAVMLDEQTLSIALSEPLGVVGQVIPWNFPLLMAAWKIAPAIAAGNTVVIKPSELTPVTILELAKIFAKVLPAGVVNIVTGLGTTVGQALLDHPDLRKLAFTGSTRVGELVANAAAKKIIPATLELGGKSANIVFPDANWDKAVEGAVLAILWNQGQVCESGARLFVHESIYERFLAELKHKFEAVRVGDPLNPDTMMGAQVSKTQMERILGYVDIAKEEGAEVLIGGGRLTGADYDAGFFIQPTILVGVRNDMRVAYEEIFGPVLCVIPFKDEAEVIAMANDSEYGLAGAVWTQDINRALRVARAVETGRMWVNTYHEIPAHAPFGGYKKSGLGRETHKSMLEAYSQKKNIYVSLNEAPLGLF
The data set can be described thus: Aldehyde dehydrogenase (glycolaldehyde to glycolic acid) kinetics, ppuALDH. Type of data set: biochemical.
Description: as §1
Enzyme assays: Standard enzyme characterization protocols were performed to determine the activities of the enzymes. Dehydrogenase activity against the substrates was determined using a continuous assay following the increase in absorbance at 340 nm ε340 (NADH)=6.22 mM^−1. cm^−1, and ε340 (NADPH)=6.2 mM^−1·cm^−1]. Substrate screens were performed at 30 °C in a reaction mixture (200 μL) containing 50 mM of substrate in 100 mM Tris-HCl (pH 8.5), 1 mM NAD^+, 1 mM substrate, and 10 μg of purified protein. […]
as §2, with “E. coli aldehyde dehydrogenase aldA (ecoALDH) has been reported to catalyze the intracellular enzymatic conversion of glycolaldehyde (GA) to glycolic acid (e.g., Wada et al. 2005; Morishige et al., 2007; Pandit et al., 2019; Pandit et al., 2021).” left out

Data set [4] addresses T3, Escherichia coli aldehyde dehydrogenase ecoALDH (aldA), SEQ ID NO: 265 (Escherichia coli, UniProt P25553).
T3 construct: made in house; host or cells: E. coli BL21 (DE3)
T3 sequence (P25553 1-479): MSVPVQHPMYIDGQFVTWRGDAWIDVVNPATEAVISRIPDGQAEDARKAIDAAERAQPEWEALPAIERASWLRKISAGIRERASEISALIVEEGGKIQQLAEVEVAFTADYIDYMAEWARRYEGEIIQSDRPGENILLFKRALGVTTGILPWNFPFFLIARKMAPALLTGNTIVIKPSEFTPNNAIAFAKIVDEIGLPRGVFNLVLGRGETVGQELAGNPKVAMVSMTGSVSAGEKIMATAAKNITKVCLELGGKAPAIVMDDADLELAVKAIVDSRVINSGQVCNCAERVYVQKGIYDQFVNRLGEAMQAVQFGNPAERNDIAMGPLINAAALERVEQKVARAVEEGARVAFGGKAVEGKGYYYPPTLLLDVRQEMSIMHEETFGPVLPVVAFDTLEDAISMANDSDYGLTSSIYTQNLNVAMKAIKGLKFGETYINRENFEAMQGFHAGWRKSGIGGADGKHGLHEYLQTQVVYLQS
The data set can be described thus: Aldehyde dehydrogenase (glycolaldehyde to glycolic acid) kinetics, ecoALDH. The class given is biochemical.
Description: as §1
(§3) Enzyme assays: Standard enzyme characterization protocols were performed to determine the activities of the enzymes. Dehydrogenase activity against the substrates was determined using a continuous assay following the increase in absorbance at 340 nm ε340 (NADH)=6.22 mM^−1. cm^−1, and ε340 (NADPH)=6.2 mM^−1·cm^−1]. […]
A second enzymatic step in the processes described herein relate to the conversion of an aliphatic polyhydric aldehyde substrate (e.g., glycolaldehyde) to a corresponding alpha-hydroxy acid (e.g., glycolic acid). […] The reaction was initiated by the addition of the purified enzyme, and activity was measured by monitoring the formation of glycolic acid over time. […]

Substrate in data set [5]: OCCO
The data set can be described thus: Alcohol dehydrogenase (EG oxidation) Michaelis-Menten kinetics, goxADH. Type of data set: biochemical, Gluconobacter oxydans. Conditions: other: role: substrate, 100 mM Tris-HCl pH 8.5, 30 °C, saturating NAD, EG 1-100 mM.
Description: as §1, §3
(§4) The candidate alcohol dehydrogenase enzymes were next characterized for their enzymatic activity. […] Reactions were initiated by the addition of the purified enzyme and enzymatic activity was measured by monitoring the formation of the product (glycolaldehyde) over time as described in Example 8.1. […]

Substrate in data set [6]: OCCO
The data set can be described thus: Alcohol dehydrogenase (EG oxidation) Michaelis-Menten kinetics, gmoADH. Type of data set: biochemical, Gluconobacter morbifer. Conditions: other: role: substrate, 100 mM Tris-HCl pH 8.5, 30 °C, saturating NAD, EG 1-100 mM.
Description: as §1, §3, §4

Substrate in data set [7]: OCCO
Description: Alcohol dehydrogenase (EG oxidation) Michaelis-Menten kinetics, gdiADH. The class given is biochemical, Gluconobacter diazotrophicus. The note with it: other: role: substrate, 100 mM Tris-HCl pH 8.5, 30 °C, saturating NAD, EG 1-100 mM.
Description: as §1, §3, §4

The mark [8] stands for this setting: role: inhibitor, substrate inhibition, relative to ecoALDH.
Setting [9] is: role: substrate, relative to ecoALDH.
Setting [10] is: role: substrate, versus ecoALDH.

On to `O=CCO` [glycolaldehyde], for which, in data set [1] (role: inhibitor, glycolaldehyde substrate inhibition, versus ecoALDH), the “resistance to substrate inhibition, fold higher than ecoALDH” value was 5.6 fold. Further, the “Relative KI” value amounted to 5.6 in data set [1] (setting [8]); 1.3 in data set [3] (setting [8]); 1.0 in data set [4] (role: inhibitor, substrate inhibition). The values for the Relative kcat in data set [1] (setting [9]), in data set [3] (setting [9]) and in data set [4] (role: substrate) were 5.3, 5.8 and 1.0, respectively. Further, the “catalytic turnover rate, fold higher than ecoALDH” value amounted to 5.3 fold in data set [1] (setting [10]) and 5.8 fold in data set [3] (setting [10]). The “turnover and catalytic efficiency for glycolaldehyde as a substrate” value in data set [2] (compared to ethylene glycol) is “higher turnover and catalytic efficiency”. In addition, the “affinity and catalytic rate for glycolaldehyde reduction to ethylene glycol” value in data set [2] (compared to the oxidation of ethylene glycol) was “higher affinity and catalytic rate”.

B1: Gluconobacter oxydans alcohol dehydrogenase goxADH (Gox0313), SEQ ID NO: 206 (Gluconobacter oxydans 621H) (protein)
chain: MADTMLAAVVREFGKPLSIERLPIPDIKPHQILVKVDTCGVCHTDLHAARGDWPSKPNPPFIPGHEGVGHIVAVGSQVGDFVKTGDVVGVPWLYSACGHCEHCLGGWETLCEKQDDTGYTVNGCFAEYVVADPNYVAHLPSTIDPLQASPVLCAGLTVYKGLKMTEARPGQWVAVSGVGGLGQMAVQYAVAMGMNVVAVDIDDEKLATAKKLGASLTVNAKDTDPARFIQQQIGGAHGALVTAVGRTAFSQAMGYARRGGTIVLNGLPPGDFPVSIFDMVMNGTTIRGSIVGTRLDMIEAMDFFARGKVKSVVTPGKLENINTIFDDLQNGRLEGRTVLDFRS
Regarding B1, the Vmax in data set [5] turned out to be 2.0 ± 0.1 µmol/min/mg.

B2: Gluconobacter morbifer alcohol dehydrogenase gmoADH, SEQ ID NO: 207 (Gluconobacter morbifer G707) (protein)
chain: MADTMQAAVVREFGKPLSIERVPVPEIRPNQILVKVETCGVCHTDLHAARGDWPTKPNPPFIPGHEGVGRIVALGSQVGDFVKVGDRVGVPWLYSACGHCEHCLGGWETLCEKQEDTGYSVNGCFAEYVAADPNYVAHLPENIDPLETSPVLCAGLTVYKGLKMTEARPGQWVAVSGIGGLGQMAVQYAVAMGMNVVAVDIDDGKLETAKKLGAVLTVNAKDRDPAKFVQQEIGGAHGALVTAVGRTAFAQAMGYARRGGTIVLNGLPPGDFPISIFDMVMNGTTVRGSIVGTRLDMIEALDFFARGKVKSVVTADKLENINTIFDNLQNGRLAGRTVLDFRS
As for B2, in data set [6], the Km is recorded as 200 ± 44 μM EG and the maximal velocity (Vmax) was 4.9 ± 0.8 µmol/min/mg.

B3: Gluconobacter diazotrophicus alcohol dehydrogenase gdiADH, SEQ ID NO: 208 (Gluconacetobacter diazotrophicus PA1 5) (protein)
chain: MRSADTILGGTSMTGKMKAAVVREFGKPLTIEELDIPSIRPDQILVKMDACGVCHTDLHAARGDWPVKPNPPFIPGHEGVGHVVSVGSAVKWVKLGDVVGVPWLYSACGHCEHCLGGWETLCASQDDTGYTVNGCFAEYVVADPSYVAHLPKTIDPLQVAPVLCAGLTVYKGLKMTDTKPGDWVAVSGVGGLGQMAVQYGVAMGMNVIAVDIDDEKLATAKALGAALTVNARATDPAPFIQSQVGGAHGALVTAVSRSAFSQAMGFARRGGTIVLNGLPPGEFPISIFDMVMAGTTVRGSIVGTRLDMIEAVSFFADGKVKTVIEPDRLENINQIFTDLEEGKIQGRKVLDFRQ
Turning to B3, in data set [7], the Km was 230 ± 87 μM EG and the Vmax is 7.5 ± 2.1 µmol/min/mg.

The Vmax is the top rate of the reaction or transport when substrate is in excess.
